Series [1] deals with Cyperus serotinus. The series is described as follows: Herbicidal activity against Cyperus serotinus assessed as phytotoxic activity ratings (0- no effect to 5-complete killing rating scale) at 100 g/a measured after 3 weeks post compound treatment under green house conditions. In kind it is functional.
The subject of series [2] is Schoenoplectiella juncoides. The series is described as follows: Herbicidal activity against Schoenoplectiella juncoides var. Hotarui Ohwi assessed as phytotoxic activity ratings (0- no effect to 5-complete killing rating scale) at 100 g/a measured after 3 weeks post compound treatment under green house conditions. The format is functional.
A further series has as its system Cyperus difformis. In words: Herbicidal activity against Cyperus difformis assessed as phytotoxic activity ratings (0- no effect to 5-complete killing rating scale) at 100 g/a measured after 3 weeks post compound treatment under green house conditions. In kind it is functional.
A further series deals with Echinochloa oryzicola. The series is described as follows: Herbicidal activity against Echinochloa oryzicola assessed as phytotoxic activity ratings (0- no effect to 5-complete killing rating scale) at 100 g/a measured after 3 weeks post compound treatment under green house conditions. In kind it is functional.
Series [3] deals with Oryza sativa. The series is described as follows: Phytotoxicity against directly seeded Oryza sativa (rice) seedlings assessed as phytotoxic activity ratings (0- no effect to 5-complete killing rating scale) at 100 g/a measured after 3 weeks post compound treatment under green house conditions. The format is organism-based. As to conditions: in vivo, 504 h.
The test system of series [4] is Oryza sativa. In words: Phytotoxicity against transplanted Oryza sativa (rice) seedlings assessed as phytotoxic activity ratings (0- no effect to 5-complete killing rating scale) at 100 g/a measured after 3 weeks post compound treatment under green house conditions. In kind it is organism-based. The following applies: in vivo, 504 h.
Series [5] has as its system Cyperus serotinus. The series is described as follows: Herbicidal activity against Cyperus serotinus assessed as phytotoxic activity ratings (0- no effect to 5-complete killing rating scale) at 3.1 to 100 g/a measured after 3 weeks post compound treatment under green house conditions. The format is functional.

Experimental findings from ChEMBL document CHEMBL3046383, “Enantioselective Herbicidal Activity of Chiral α-Methylbenzylphenylureas against Cyperaceae and Echinochloa Paddy Weeds” (Biosci Biotechnol Biochem, 1998) are described below.

Calls of active or inactive are those of the source. The rule behind the calls is not given here.

For `CCc1ccc(NC(=O)N[C@H](C)c2ccccc2)cc1`, the Activity in the series with Cyperus serotinus [1] was found to be 40%; in series [2] it was 40%; in the series on Cyperus difformis, 40%; with Echinochloa oryzicola it was 0%; in the series on Oryza sativa [3] it was 0%; in the series with Oryza sativa [4] it was 0%.

For `C[C@H](NC(=O)Nc1ccccc1C(F)(F)F)c1ccccc1`, the Activity is on record as 0% in the series on Cyperus serotinus [1]; 0% in series [2]; 0% in the series with Cyperus difformis; 10% with Echinochloa oryzicola; 0% in the series with Oryza sativa [3]; 0% with Oryza sativa [4].

As to `CCc1cccc(NC(=O)N[C@@H](C)c2ccccc2)c1`, the Activity came out at 0% in the series with Cyperus serotinus [1]; 40% in series [2]; 40% with Cyperus difformis; 0% with Echinochloa oryzicola; 0% in the series with Oryza sativa [3]; 0% with Oryza sativa [4].

Turning to `CCc1ccccc1NC(=O)N[C@@H](C)c1ccccc1`, the Activity in the series with Cyperus serotinus [1] was determined as 0%; in series [2], 10%; in the series with Cyperus difformis it was 40%; in the series on Echinochloa oryzicola it was 0%; in the series with Oryza sativa [3], 0%; in the series on Oryza sativa [4], 0%.

Take `COc1cccc(NC(=O)N[C@@H](C)c2ccccc2)c1`: the Activity (in the series on Cyperus serotinus [1]; in series [2]; with Cyperus difformis; in the series on Echinochloa oryzicola; with Oryza sativa [3]; in the series on Oryza sativa [4]) was 0% in each case.

`C[C@H](NC(=O)Nc1c(F)cccc1F)c1ccccc1`: the Activity (with Cyperus serotinus [1]; in series [2]; with Cyperus difformis; with Echinochloa oryzicola; in the series with Oryza sativa [3]; in the series on Oryza sativa [4]) was 0% throughout.

For the compound `Cc1ccccc1NC(=O)N[C@@H](C)c1ccccc1`, the Activity (with Cyperus serotinus [1]; in series [2]; in the series on Cyperus difformis; in the series on Echinochloa oryzicola; in the series with Oryza sativa [3]; in the series with Oryza sativa [4]) was 0% throughout.

`C[C@H](NC(=O)Nc1ccccc1C(C)(C)C)c1ccccc1`: the Activity amounted to 0% with Cyperus serotinus [1]; 10% in series [2]; 40% in the series with Cyperus difformis; 0% with Echinochloa oryzicola; 0% with Oryza sativa [3]; 0% with Oryza sativa [4].

In the case of `C[C@@H](NC(=O)Nc1ccccc1)c1ccccc1`, the Activity with Cyperus serotinus [1] came to 80%; in series [2], 10%; with Cyperus difformis, 40%; in the series with Echinochloa oryzicola, 40%; in the series on Oryza sativa [3], 0%; with Oryza sativa [4], 0%.

As for `CCc1ccc(NC(=O)N[C@@H](C)c2ccccc2)cc1`, the Activity (in the series on Cyperus serotinus [1]; in series [2]; with Cyperus difformis; in the series on Echinochloa oryzicola; with Oryza sativa [3]; in the series with Oryza sativa [4]) was 0% each time.

Take `C[C@@H](NC(=O)Nc1ccccc1F)c1ccccc1`: the Activity with Cyperus serotinus [1] is 40%; in series [2] it was 10%; with Cyperus difformis, 40%; with Echinochloa oryzicola it was 10%; in the series on Oryza sativa [3], 10%; in the series on Oryza sativa [4], 0%.

Regarding `Cc1ccc(NC(=O)N[C@@H](C)c2ccccc2)cc1`, the Activity with Cyperus serotinus [1] is reported as 0%; in series [2] it was 0%; in the series with Cyperus difformis it was 0%; with Echinochloa oryzicola, 40%; in the series with Oryza sativa [3], 0%; in the series with Oryza sativa [4], 0%.

Take `C[C@H](NC(=O)Nc1cccc(Br)c1)c1ccccc1`: the outcome in the series on Cyperus serotinus [5] was inactive. The Activity in series [2] is 0%; with Cyperus difformis it was 10%; in the series on Echinochloa oryzicola, 0%; in the series on Oryza sativa [3] it was 0%; in the series with Oryza sativa [4] it was 0%.

On to `CC(C)c1ccc(NC(=O)N[C@H](C)c2ccccc2)cc1`, for which the result in the series on Cyperus serotinus [5] was inactive. The Activity (in series [2]; in the series on Cyperus difformis; in the series with Echinochloa oryzicola; in the series with Oryza sativa [3]; in the series on Oryza sativa [4]) was 0% each time.

Regarding `CC(C)c1ccccc1NC(=O)N[C@@H](C)c1ccccc1`, the Activity (in the series with Cyperus serotinus [1]; in series [2]; in the series on Cyperus difformis; in the series on Echinochloa oryzicola; with Oryza sativa [3]; with Oryza sativa [4]) was 0% each time.

With `C[C@@H](NC(=O)Nc1cc(F)ccc1F)c1ccccc1`, the outcome in the series on Cyperus serotinus [5] was inactive. Further, the Activity (in series [2]; with Cyperus difformis; in the series with Echinochloa oryzicola; in the series on Oryza sativa [3]; in the series with Oryza sativa [4]) was 0% each time.

With `CCCCc1ccc(NC(=O)N[C@H](C)c2ccccc2)cc1`, in the series on Cyperus serotinus [5], the result was inactive. Moreover, the Activity came to 0% in series [2]; 0% in the series on Cyperus difformis; 10% in the series with Echinochloa oryzicola; 10% with Oryza sativa [3]; 0% in the series with Oryza sativa [4].

Consider `CCc1cccc(CC)c1NC(=O)N[C@H](C)c1ccccc1`, for which the outcome in the series on Cyperus serotinus [5] was inactive. Moreover, the Activity (in series [2]; with Cyperus difformis; in the series on Echinochloa oryzicola; in the series with Oryza sativa [3]; with Oryza sativa [4]) was 0% in each case.

As for `C[C@H](NC(=O)Nc1ccc(Cl)c(Cl)c1)c1ccccc1`, in the series on Cyperus serotinus [5], the result was inactive. The Activity (in series [2]; in the series with Cyperus difformis; in the series with Echinochloa oryzicola; in the series on Oryza sativa [3]; in the series with Oryza sativa [4]) was 0% throughout.

With `C[C@@H](NC(=O)Nc1cc(C(F)(F)F)cc(C(F)(F)F)c1)c1ccccc1`, the result with Cyperus serotinus [5] was inactive. The Activity (in series [2]; in the series on Cyperus difformis; in the series on Echinochloa oryzicola; in the series on Oryza sativa [3]; with Oryza sativa [4]) was 0% each time.

For `C[C@@H](NC(=O)Nc1ccc(Cl)cc1)c1ccccc1`, the result in the series with Cyperus serotinus [5] was inactive. Besides, the Activity (in series [2]; with Cyperus difformis; in the series on Echinochloa oryzicola; with Oryza sativa [3]; with Oryza sativa [4]) was 0% throughout.

Take `Cc1cccc(NC(=O)N[C@H](C)c2ccccc2)c1`: the Activity stood at 80% in the series on Cyperus serotinus [1]; 80% in series [2]; 80% in the series on Cyperus difformis; 40% in the series with Echinochloa oryzicola; 10% with Oryza sativa [3]; 0% with Oryza sativa [4].

On to `C[C@H](NC(=O)Nc1cccc(I)c1)c1ccccc1`, for which the outcome in the series on Cyperus serotinus [5] was inactive. For the same compound, the Activity amounted to 0% in series [2]; 10% in the series on Cyperus difformis; 0% with Echinochloa oryzicola; 0% in the series on Oryza sativa [3]; 0% with Oryza sativa [4].

Turning to `C[C@@H](NC(=O)Nc1cc(C(C)(C)C)ccc1C(C)(C)C)c1ccccc1`, in the series on Cyperus serotinus [5], the outcome was inactive. In addition, the Activity (in series [2]; with Cyperus difformis; in the series with Echinochloa oryzicola; in the series on Oryza sativa [3]; in the series on Oryza sativa [4]) was 0% in each case.

Consider `C[C@H](NC(=O)Nc1ccc(Cl)cc1)c1ccccc1`, for which the outcome with Cyperus serotinus [5] was inactive. In addition, the Activity (in series [2]; in the series on Cyperus difformis; in the series on Echinochloa oryzicola; with Oryza sativa [3]; in the series on Oryza sativa [4]) was 0% throughout.

Take `C[C@@H](NC(=O)Nc1c(F)cccc1F)c1ccccc1`: the Activity in the series with Cyperus serotinus [1] stood at 40%; in series [2], 40%; in the series with Cyperus difformis it was 40%; in the series on Echinochloa oryzicola it was 40%; with Oryza sativa [4], 0%.

Take `Cc1cc(F)ccc1NC(=O)N[C@H](C)c1ccccc1`: the Activity (with Cyperus serotinus [1]; in series [2]; with Cyperus difformis; in the series with Echinochloa oryzicola; in the series with Oryza sativa [3]; in the series with Oryza sativa [4]) was 0% in each case.

As for `CCCCCCCc1ccc(NC(=O)N[C@H](C)c2ccccc2)cc1`, in the series with Cyperus serotinus [5], the result was inactive. Further, the Activity (in series [2]; with Cyperus difformis; in the series on Echinochloa oryzicola; with Oryza sativa [3]; in the series with Oryza sativa [4]) was 0% throughout.

For the compound `CCOC(=O)c1ccc(NC(=O)N[C@@H](C)c2ccccc2)cc1`, the result with Cyperus serotinus [5] was inactive. Also, the Activity (in series [2]; with Cyperus difformis; in the series with Echinochloa oryzicola; with Oryza sativa [3]; with Oryza sativa [4]) was 0% each time.

Take `C[C@@H](NC(=O)Nc1cc(C(F)(F)F)ccc1F)c1ccccc1`: in the series on Cyperus serotinus [5], the result was inactive. The Activity in series [2] turned out to be 0%; with Cyperus difformis, 0%; with Echinochloa oryzicola, 80%; with Oryza sativa [3], 10%; with Oryza sativa [4], 0%.

For `CC(=O)c1ccc(NC(=O)N[C@@H](C)c2ccccc2)cc1`, the result in the series on Cyperus serotinus [5] was inactive. Moreover, the Activity (in series [2]; in the series on Cyperus difformis; in the series on Echinochloa oryzicola; with Oryza sativa [3]; with Oryza sativa [4]) was 0% each time.
